Assay results taken from US10975119B2, “Selective cysteine protease inhibitors and uses thereof” (Genesis Technologies Limited, priority 2011, dated 2021).

Legend:
Type in all cases: biochemical
[1] = target: T1, Caspase-1 (Homo sapiens, UniProt P29466); test: Caspase-1 inhibitor screening assay (BioVision kit, YVAD-AFC); settings: for inhibition at 10 µM: read-out: % Inhibition at 10 uM Casp1; for inhibition at 100 µM: read-out: % Inhibition at 100 uM Casp1; for IC50: read-out: IC50 Casp1
T1 construct: mixing the compounds with the respective active caspases; purchased BioVision K151-100
T1 sequence (P29466 120-297 limits assumed): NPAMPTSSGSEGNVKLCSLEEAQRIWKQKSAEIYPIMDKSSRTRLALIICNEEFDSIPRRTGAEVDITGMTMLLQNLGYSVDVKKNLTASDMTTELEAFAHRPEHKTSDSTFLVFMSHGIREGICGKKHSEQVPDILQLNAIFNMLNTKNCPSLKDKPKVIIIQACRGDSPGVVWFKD
T1 sequence (P29466 317-404 limits assumed): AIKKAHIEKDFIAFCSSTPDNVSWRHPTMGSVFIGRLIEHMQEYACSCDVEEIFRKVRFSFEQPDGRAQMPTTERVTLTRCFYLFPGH
Method: (§1) The efficacy of an array of compounds as an inhibitor of the activity of Caspases 1 through 10 were assessed by using the respective Caspase Inhibitor Drug Screening Kits (Caspase-1 Catalog #: K151-100, Caspase-2 Catalog #: K152-100, Caspase-3 Catalog #: K153-100, Caspase-4 Catalog #: K154-100, Caspase-5 Catalog #: K155-100, Caspase-6 Catalog #: K156-100, Caspase-7 Catalog #: K157-100, Caspase-8 Catalog #: K158-100, Caspase-9 Catalog #: K159-100, Caspase-10 Catalog #: K160-100, BioVision) following the instructions of the manufacturer. […] Active caspases cleaved their respective synthetic substrates to release free AFC, which was then quantified by fluorometry.
(§2) Briefly, the compounds were first tested at 2 concentrations (10 uM and 100 uM final) to determine if there is a hit. […] Each condition was tested in duplicates. […] For some samples, a smaller range of concentrations was tested depending on the % Inhibition results at 10 uM and 100 uM. Results were summarized in Tables 2, 3, and 4 herein after. Table 2 represents the IC50 values (uM) of the test compounds as inhibitors of the activity of the various caspases.
(§3) (*) RFU (no inhibitor control)—RFU (compound at a specific concentration)
(§4) RFU (no inhibitor control)

[2] = target: T2, Caspase-3 (Homo sapiens, UniProt P42574); test: Caspase-3 inhibitor screening assay (BioVision kit, DEVD-AFC); settings: for inhibition at 10 µM: read-out: % Inhibition at 10 uM Casp3; for inhibition at 100 µM: read-out: % Inhibition at 100 uM Casp3; for IC50: read-out: IC50 Casp3
T2 construct: mixing the compounds with the respective active caspases; purchased BioVision K153-100
T2 sequence (P42574 29-175 limits assumed): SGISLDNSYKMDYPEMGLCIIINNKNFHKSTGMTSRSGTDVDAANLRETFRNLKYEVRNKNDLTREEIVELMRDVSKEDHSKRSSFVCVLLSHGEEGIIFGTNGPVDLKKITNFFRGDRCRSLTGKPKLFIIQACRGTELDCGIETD
T2 sequence (P42574 176-277 limits assumed): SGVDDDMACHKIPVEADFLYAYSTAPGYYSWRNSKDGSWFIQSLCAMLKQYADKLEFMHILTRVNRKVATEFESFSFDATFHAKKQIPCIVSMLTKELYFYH
Method: as §1, §2, §3, §4

[3] = target: T3, Caspase-5 (Homo sapiens, UniProt P51878); test: Caspase-5 inhibitor screening assay (BioVision kit, WEHD-AFC); settings: for inhibition at 10 µM: read-out: % Inhibition at 10 uM Casp5; for inhibition at 100 µM: read-out: % Inhibition at 100 uM Casp5; for IC50: read-out: IC50 Casp5
T3 construct: mixing the compounds with the respective active caspases; purchased BioVision K155-100
T3 sequence (P51878 137-327 limits assumed): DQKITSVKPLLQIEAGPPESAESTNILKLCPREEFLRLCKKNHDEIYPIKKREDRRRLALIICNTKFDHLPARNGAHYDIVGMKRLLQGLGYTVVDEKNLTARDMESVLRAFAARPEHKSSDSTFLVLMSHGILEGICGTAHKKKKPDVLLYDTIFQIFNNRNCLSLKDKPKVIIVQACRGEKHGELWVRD
T3 sequence (P51878 347-434 limits assumed): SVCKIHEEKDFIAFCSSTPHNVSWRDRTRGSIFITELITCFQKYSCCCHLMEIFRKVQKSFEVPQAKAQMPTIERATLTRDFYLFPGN
Method: as §1, §2, §3, §4

[4] = target: T4, Caspase-6 (Homo sapiens, UniProt P55212); test: Caspase-6 inhibitor screening assay (BioVision kit, VEID-AFC); settings: for inhibition at 10 µM: read-out: % Inhibition at 10 uM Casp6; for inhibition at 100 µM: read-out: % Inhibition at 100 uM Casp6; for IC50: read-out: IC50 Casp6
T4 construct: mixing the compounds with the respective active caspases; purchased BioVision K156-100
T4 sequence (P55212 24-179 limits assumed): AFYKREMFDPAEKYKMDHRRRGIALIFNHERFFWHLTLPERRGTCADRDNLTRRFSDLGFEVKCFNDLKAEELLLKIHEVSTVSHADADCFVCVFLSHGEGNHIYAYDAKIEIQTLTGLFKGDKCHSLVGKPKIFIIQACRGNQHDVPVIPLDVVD
T4 sequence (P55212 194-293 limits assumed): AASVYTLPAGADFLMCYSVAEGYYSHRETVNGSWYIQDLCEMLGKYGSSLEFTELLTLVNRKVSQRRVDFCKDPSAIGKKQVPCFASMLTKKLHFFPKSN
Method: as §1, §2, §3, §4

[5] = target: T5, Caspase-7 (Homo sapiens, UniProt P55210); test: Caspase-7 inhibitor screening assay (BioVision kit, DEVD-AFC); settings: for inhibition at 10 µM: read-out: % Inhibition at 10 uM Casp7; for inhibition at 100 µM: read-out: % Inhibition at 100 uM Casp7; for IC50: read-out: IC50 Casp7
T5 construct: mixing the compounds with the respective active caspases; purchased BioVision K157-100
T5 sequence (P55210 24-198 limits assumed): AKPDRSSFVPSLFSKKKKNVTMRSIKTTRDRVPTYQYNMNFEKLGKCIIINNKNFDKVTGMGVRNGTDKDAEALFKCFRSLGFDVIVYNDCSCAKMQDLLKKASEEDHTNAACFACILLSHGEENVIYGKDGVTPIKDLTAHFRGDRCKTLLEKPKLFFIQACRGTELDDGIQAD
T5 sequence (P55210 207-303 limits assumed): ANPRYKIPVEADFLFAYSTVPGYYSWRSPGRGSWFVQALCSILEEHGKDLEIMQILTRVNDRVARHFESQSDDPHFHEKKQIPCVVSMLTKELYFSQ
Method: as §1, §2, §3, §4

[6] = target: T6, Caspase-8 (Homo sapiens, UniProt Q14790); test: Caspase-8 inhibitor screening assay (BioVision kit, IETD-AFC); settings: for inhibition at 10 µM: read-out: % Inhibition at 10 uM Casp8; for inhibition at 100 µM: read-out: % Inhibition at 100 uM Casp8; for IC50: read-out: IC50 Casp8
T6 construct: mixing the compounds with the respective active caspases; purchased BioVision K158-100
Method: as §1, §2, §3, §4

[7] = target: T7, Caspase-10 (Homo sapiens, UniProt Q92851); test: Caspase-10 inhibitor screening assay (BioVision kit, AEVD-AFC); settings: for inhibition at 10 µM: read-out: % Inhibition at 10 uM Casp10; for inhibition at 100 µM: read-out: % Inhibition at 100 uM Casp10; for IC50: read-out: IC50 Casp10
T7 construct: mixing the compounds with the respective active caspases; purchased BioVision K160-100
T7 sequence (Q92851 220-415 limits assumed): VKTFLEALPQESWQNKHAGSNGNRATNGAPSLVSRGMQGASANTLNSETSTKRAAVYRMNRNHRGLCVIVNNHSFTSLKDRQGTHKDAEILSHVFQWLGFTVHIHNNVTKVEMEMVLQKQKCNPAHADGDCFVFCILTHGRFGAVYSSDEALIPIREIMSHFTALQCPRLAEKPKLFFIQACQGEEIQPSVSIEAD
T7 sequence (Q92851 416-521 limits assumed): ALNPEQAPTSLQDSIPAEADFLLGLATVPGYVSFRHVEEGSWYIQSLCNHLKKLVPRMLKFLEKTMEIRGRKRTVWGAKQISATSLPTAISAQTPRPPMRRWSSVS
Method: as §1, §2, §3, §4

T6 sequence (Q14790 217-374 limits assumed): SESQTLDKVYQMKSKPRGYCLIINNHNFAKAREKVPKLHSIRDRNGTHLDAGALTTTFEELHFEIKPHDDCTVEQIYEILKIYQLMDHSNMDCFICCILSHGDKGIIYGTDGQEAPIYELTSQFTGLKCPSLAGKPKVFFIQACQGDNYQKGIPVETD
T6 sequence (Q14790 385-479 limits assumed): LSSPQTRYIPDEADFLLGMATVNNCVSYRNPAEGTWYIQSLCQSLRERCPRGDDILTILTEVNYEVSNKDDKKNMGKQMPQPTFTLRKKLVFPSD

| Compound | inhibition at 10 µM [1] [%] | inhibition at 100 µM [1] [%] | IC50 [1] [µM] | inhibition at 10 µM [2] [%] | inhibition at 100 µM [2] [%] | IC50 [2] [µM] | inhibition at 10 µM [3] [%] | inhibition at 100 µM [3] [%] | IC50 [3] [µM] | inhibition at 10 µM [4] [%] | inhibition at 100 µM [4] [%] | IC50 [4] [µM] | inhibition at 10 µM [5] [%] | inhibition at 100 µM [5] [%] | IC50 [5] [µM] | inhibition at 10 µM [6] [%] | inhibition at 100 µM [6] [%] | IC50 [6] [µM] | inhibition at 10 µM [7] [%] | inhibition at 100 µM [7] [%] | also measured |
| --- | --- | --- | --- | --- | --- | --- | --- | --- | --- | --- | --- | --- | --- | --- | --- | --- | --- | --- | --- | --- | --- |
| CC(C)(C)[C@H](NC(=O)c1ccc2ncccc2n1)C(=O)N1CCCC1C(=O)N[C@H](/C=C/S(C)(=O)=O)CC(=O)O (stereo in doubt) [Compound 8, (1,5-Naphthyridine-2-carbonyl)-t-Leu-Pro-Asp methyl vinyl sulfone] | 91 | 100 | 0.88 | 3 | 5 | > 100 | 65 | 97 | 5.9 | 2 | 1 | > 100 | 0 | 0 | > 100 | 8 | 23 | > 100 | 27 | 90 | IC50 [7]: 18 µM |
| CC(C)(C)[C@H](NC(=O)c1ccc2ncccc2c1)C(=O)N1CCCC1C(=O)N[C@H](/C=C/S(C)(=O)=O)CC(=O)O (stereo in doubt) [Compound 10, Quinoline-6-carbonyl-t-Leu-Pro-Asp methyl vinyl sulfone] | 90 | 100 | 0.12 | 12 | 16 | > 100 | 78 | 98 | 3 | 0 | 0 | > 100 | 3 | 73 | 53.6 | 34 | 94 | 14.7 | 65 | 98 | IC50 [7]: 4.67 µM |
